Legend:
A549/ATCC = experiment: NCI-60 Human Tumor Cell Line Growth Inhibition Screen; assay type: cell-based; details: Non-Small Cell Lung Cancer, 48 hours, SRB
Experimental: (§1) Various human tumor cell lines representing the NCI-60 cancer screening panel were grown in RPMI 1640 medium containing 5% fetal bovine serum and 2 mM L-glutamine. For a typical screening experiment, cells were inoculated into 96 well microtiter plates in 100 μL at plating densities ranging from 5,000 to 40,000 cells/well depending on the doubling time of individual cell lines. After cell inoculation, the microtiter plates were incubated at 37° C., 5% CO2, 95% air and 100% relative humidity for 24 hours prior to addition of the test compound. After 24 hours, two plates of each cell line were fixed in situ with TCA, to represent a measurement of the cell population for each cell line at the time of test compound addition (Tz). Experimental test compounds were solubilized in 100% (v/v) DMSO at 400-fold the desired final maximum test concentration and stored frozen prior to use. At the time of test compound addition, an aliquot of frozen concentrate was thawed and diluted to twice the desired final maximum test concentration with complete medium containing 50 μg/ml gentamicin. Additional four, 10-fold or ½ log serial dilutions were made to provide a total of five test compound concentrations plus control. Aliquots of 100 μl of these different test compound dilutions were added to the appropriate microtiter wells already containing 100 μl of medium, resulting in the required final test compound concentrations.
(§2) Following test compound addition, the plates were incubated for an additional 48 hours at 37° C., 5% CO2, 95% air, and 100% relative humidity. For adherent cells, the assay was terminated by the addition of cold TCA. Cells were fixed in situ by the gentle addition of 50 μl of cold 50% (w/v) TCA and incubated for 60 minutes at 4° C. The supernatant was discarded, and the plates were washed five times with tap water and air dried. Sulforhodamine B (SRB) solution (100 μl) at 0.4% (w/v) in 1% acetic acid was added to each well, and plates were incubated for 10 minutes at room temperature. After staining, unbound dye was removed by washing five times with 1% acetic acid and the plates were air dried. Bound stain was subsequently solubilized with 10 mM trizma base, and the absorbance was read on an automated plate reader at a wavelength of 515 nm. For suspension cells, the methodology was the same except that the assay was terminated by fixing settled cells at the bottom of the wells by gently adding 50 μl of 80% TCA. Using the seven absorbance measurements [time zero, (Tz), control growth, (C), and test growth in the presence of test compound at the five concentration levels (Ti)], the percentage growth was calculated at each of the test compound concentrations levels. Percentage growth inhibition was calculated as: [(Ti−Tz)/(C−Tz)]×100 for concentrations for which Ti≧Tz or [(Ti−Tz)/Tz]×100 for concentrations for which Ti<Tz. Growth inhibition of 50% (GI50) was calculated from [(Ti−Tz)/(C−Tz)]×100=50, which is the test compound concentration resulting in a 50% reduction in the net protein increase (as measured by SRB staining) in control cells during the test compound incubation.

CAKI-1 = experiment: as above; assay type: cell-based; details: CAKI-1, Renal Cancer, 48 hours, SRB
Experimental: as §1, §2

HL-60(TB) = experiment: as above; assay type: cell-based; details: Leukemia, 48 hours, SRB
Experimental: as §1, §2

HT29 = experiment: as above; assay type: cell-based; details: HT-29, HT29, Colon Cancer, 48 hours, SRB
Experimental: as §1, §2

LOX IMVI = experiment: as above; assay type: cell-based; details: Melanoma, 48 hours, SRB
Experimental: as §1, §2

MCF7 = experiment: as above; assay type: cell-based; details: MCF7, Breast Cancer, 48 hours, SRB
Experimental: as §1, §2

OVCAR-3 = experiment: as above; assay type: cell-based; details: OVCAR-3, Ovarian Cancer, 48 hours, SRB
Experimental: as §1, §2

PC-3 = experiment: as above; assay type: cell-based; details: PC-3, Prostate Cancer, 48 hours, SRB
Experimental: as §1, §2

U251 = experiment: as above; assay type: cell-based; details: U-251, U251, CNS Cancer, 48 hours, SRB
Experimental: as §1, §2

USP7 = molecular target: T1, USP7 (Homo sapiens, UniProt Q93009); experiment: USP7, Ub-PLA2 assay; assay type: biochemical; details: for EC50: Ub-PLA2 / NBD C6-HPC fluorescence, 30 minute preincubation, read-out: EC50 for inhibition of USP7
T1 construct: full length human USP7 protein; made in house
Outline: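 Activity read as fluorescence in a Ub-PLA2 format, with percent inhibition calculated within each plate against DMSO (uninhibited) and NEM (background) wells. Vehicle was 100% DMSO.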

[1] = HCT-116 Cellular Cytotoxicity Assay; details: human, HCT-116 cells, pH 7.2
Experimental: (§3) The purpose of this assay is to determine if any of the synthesized compounds are cytotoxic against HCT-116 cells, as measured by resazurin metabolism. Resazurin is metabolized only by living cells from a non-fluorescent molecule into Resorufin, a highly red fluorescent dye. […] The cells were cultured in an incubator at 37° C. in 5% CO2 and 95% humidified air. […] The final concentration DMSO was 0.5% (v/v) in all samples. The plates were returned to the incubator for 72 hours. Following 72 hours of test compound exposure, 10 μL of 0.2 mg/mL Resazurin (Sigma) in phosphate buffered saline was added to each well and the plate was returned to the incubator for 3-6 hours. Since living cells metabolize Resazurin, the fluorescence of the reduction product of Resazurin was measured using a microplate fluorometer with λex=531 nm and λem=590 nm filters. Resazurin dye in medium without cells was used to determine the background, which was subtracted from the data for all experimental wells.

HCT-116 cells [2] = experiment: HCT-116 Combination Cytotoxicity Assay; assay type: cell-based, human; details: constant ratio, 72 hours
[3] = test system: human multiple myeloma tumor cells; experiment: In vivo Efficacy of P5091; details: SCID mice, 10 mg/kg intravenously twice a week for three weeks
Experimental: Severe combined immunodeficient mice inoculated subcutaneously with human multiple myeloma tumor cells were treated intravenously twice a week for three weeks with 10 mg/kg P5091. […] See D. Chauhan et al., Abstract No. 610 (Deubiquitylating Enzyme USP-7, a Novel Therapeutic Target in Multiple Myeloma), 51st ASH Annual Meeting and Exposition, New Orelans, La., December 2009.

HCT-116 cells [4] = test system: HCT-116 cells
Experimental: as §3

T1 sequence (Q93009 whole entry): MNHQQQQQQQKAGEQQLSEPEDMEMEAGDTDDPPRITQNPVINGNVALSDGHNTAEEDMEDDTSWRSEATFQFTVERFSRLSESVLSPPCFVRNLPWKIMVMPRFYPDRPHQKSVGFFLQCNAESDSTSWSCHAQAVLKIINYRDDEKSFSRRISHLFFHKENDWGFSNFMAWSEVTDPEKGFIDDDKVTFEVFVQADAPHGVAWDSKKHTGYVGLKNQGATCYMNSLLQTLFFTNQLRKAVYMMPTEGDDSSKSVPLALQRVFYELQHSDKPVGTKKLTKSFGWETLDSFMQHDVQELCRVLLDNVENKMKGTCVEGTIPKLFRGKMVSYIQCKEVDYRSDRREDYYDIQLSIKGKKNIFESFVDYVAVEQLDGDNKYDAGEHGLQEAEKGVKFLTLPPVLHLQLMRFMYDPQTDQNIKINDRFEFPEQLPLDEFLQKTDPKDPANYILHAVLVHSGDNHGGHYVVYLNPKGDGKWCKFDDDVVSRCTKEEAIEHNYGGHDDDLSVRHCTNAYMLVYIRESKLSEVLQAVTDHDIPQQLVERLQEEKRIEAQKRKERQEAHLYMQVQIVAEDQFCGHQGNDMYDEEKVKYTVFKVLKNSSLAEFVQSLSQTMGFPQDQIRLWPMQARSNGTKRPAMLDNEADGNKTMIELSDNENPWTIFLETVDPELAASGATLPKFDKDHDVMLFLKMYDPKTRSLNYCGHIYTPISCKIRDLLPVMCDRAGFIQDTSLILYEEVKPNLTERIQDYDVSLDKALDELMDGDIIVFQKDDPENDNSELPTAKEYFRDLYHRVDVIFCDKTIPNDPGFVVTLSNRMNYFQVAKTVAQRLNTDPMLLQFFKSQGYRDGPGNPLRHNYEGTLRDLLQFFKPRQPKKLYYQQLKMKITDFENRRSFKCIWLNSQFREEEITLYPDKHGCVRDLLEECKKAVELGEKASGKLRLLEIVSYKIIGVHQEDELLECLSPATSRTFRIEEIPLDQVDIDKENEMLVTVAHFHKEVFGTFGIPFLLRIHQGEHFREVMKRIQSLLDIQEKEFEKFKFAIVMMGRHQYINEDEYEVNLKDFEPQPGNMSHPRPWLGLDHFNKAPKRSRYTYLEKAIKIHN

Compound | GI50 (A549/ATCC) [µM] | GI50 (CAKI-1) [nM] | GI50 (HL-60(TB)) [nM] | GI50 (HT29) [nM] | GI50 (LOX IMVI) [nM] | GI50 (MCF7) [nM] | GI50 (OVCAR-3) [nM] | GI50 (PC-3) [µM] | GI50 (U251) [µM] | EC50 (USP7) [nM] | EC50 at 72 h [1] [µM] | other results
CC(=O)c1cc([N+](=O)[O-])c(Sc2ccc(F)cc2F)s1 [Example 3, 1-[5-(2,4-Difluorophenylsulfanyl)-4-nitro-2-thienyl]ethanone] | 15.5 | 1820 | 2750 | 3800 | 1510 | 2570 | 2040 | 12 | 4.79 |  |  | 
CC(=O)c1cc([N+](=O)[O-])c(Sc2c(Cl)cncc2Cl)s1 [Example 17, 1-[5-[(3,5-dichloro-4-pyridyl)sulfanyl]-4-nitro-2-thienyl]ethanone] | 3.09 | 1860 | 1910 | 1860 | 1510 | 1910 | 1410 | 2.75 | 1.95 | 1000 to 10000 | 8.66 | 
CS(=O)(=O)c1cc([N+](=O)[O-])c(Sc2c(Cl)cncc2Cl)s1 [Example 22, 3,5-dichloro-4-[(5-methylsulfonyl-3-nitro-2-thienyl)sulfanyl]pyridine] | 13.8 | 1820 | 1410 | 2040 | 10000 | 2040 | 1820 | 3.72 | 12.9 | 1000 to 10000 |  | 
CS(=O)(=O)c1cc([N+](=O)[O-])c(Sc2ccc(Cl)cc2Cl)s1 [Example 23, 2-(2,4-dichlorophenyl)sulfanyl-5-methylsulfonyl-3-nitro-thiophene] | 12.6 | 2240 | 2190 | 1780 | 1740 | 1700 | 1620 | 3.98 | 6.31 | 1000 to 10000 |  | 
CN1CCC(NC(=O)c2cc([N+](=O)[O-])c(Sc3c(Cl)cncc3Cl)s2)CC1 [Example 168, 5-((3,5-dichloropyridin-4-yl)thio)-N-(1-methylpiperidin-4-yl)-4-nitrothiophene-2-carboxamide] |  |  |  |  |  |  |  |  |  | ≤ 1000 | 6.52 | CI (mean ± SD) ED75 (HCT-116 cells [2]; combination with Chlormethine): 0.70 ± 0.10; CI (mean ± SD) ED90 (HCT-116 cells [2]; combination with Chlormethine): 0.78 ± 0.13; CI (mean ± SD) ED75 (HCT-116 cells [2]; combination with Doxorubicin): 0.73 ± 0.09; CI (mean ± SD) ED90 (HCT-116 cells [2]; combination with Doxorubicin): 0.81 ± 0.11; CI (mean ± SD) ED75 (HCT-116 cells [2]; combination with Etoposide): 0.54 ± 0.10; CI (mean ± SD) ED90 (HCT-116 cells [2]; combination with Etoposide): 0.59 ± 0.14
CN(C)CCOc1ccc(NC(=O)c2cc([N+](=O)[O-])c(Sc3c(Cl)cncc3Cl)s2)cc1 [Example 192, 5-((3,5-dichloropyridin-4-yl)thio)-N-(4-(2-(dimethylamino)ethoxy)phenyl)-4-nitrothiophene-2-carboxamide] |  |  |  |  |  |  |  |  |  | ≤ 1000 | 4.9 | 
CN(C)CCCOc1ccc(NC(=O)c2cc([N+](=O)[O-])c(Sc3c(Cl)cncc3Cl)s2)cc1 [Example 193, 5-[(3,5-dichloro-4-pyridyl)sulfanyl]-N-[4-(3-dimethylaminopropoxy)phenyl]-4-nitro-thiophene-2-carboxamide] |  |  |  |  |  |  |  |  |  | ≤ 1000 | 3.37 | USP7 inhibition, result in words (USP7; USP7, Ub-PLA2 assay): Particularly good results
CN1CCC(NC(=O)c2cc(C#N)c(Sc3c(Cl)cncc3Cl)s2)CC1 [Example 203, 4-cyano-5-((3,5-dichloropyridin-4-yl)thio)-N-(1-methylpiperidin-4-yl)thiophene-2-carboxamide] |  |  |  |  |  |  |  |  |  | 1000 to 10000 | 10.4 | 
COc1cc(NC(=O)c2cc(C#N)c(Sc3c(Cl)cncc3Cl)s2)ccc1OCCCN(C)C [Example 205, 4-cyano-5-((3,5-dichloropyridin-4-yl)thio)-N-(4-(3-(dimethylamino)propoxy)-3-methoxyphenyl)thiophene-2-carboxamide] |  |  |  |  |  |  |  |  |  | ≤ 1000 | 3.1 | 
CN(C)CCNc1ccc(NC(=O)c2cc([N+](=O)[O-])c(Sc3c(Cl)cncc3Cl)s2)cn1 [Example 238, 5-((3,5-dichloropyridin-4-yl)thio)-N-(6-((2-(dimethylamino)ethyl)amino)pyridin-3-yl)-4-nitrothiophene-2-carboxamide] |  |  |  |  |  |  |  |  |  | ≤ 1000 | 3.96 | 
CC(=O)c1cc([N+](=O)[O-])c(Oc2ccc(Cl)cc2Cl)s1 [Example 271, 1-(5-(2,4-dichlorophenoxy)-4-nitrothiophen-2-yl)ethanone] |  |  |  |  |  |  |  |  |  | 1000 to 10000 | 8.54 | 
CC(=O)c1cc([N+](=O)[O-])c(Sc2cccc(Cl)c2Cl)s1 [Example P5091, 1-[5-(2,3-dichlorophenyl)sulfanyl-4-nitro-2-thienyl]ethanone] | 16.3 | 2170 | 1820 | 2070 | 1840 | 1940 | 1650 | 1.78 | 2.33 |  | 9.21 | CI (mean ± SD) ED75 (HCT-116 cells [2]; combination with Chlormethine): 0.67 ± 0.07; CI (mean ± SD) ED90 (HCT-116 cells [2]; combination with Chlormethine): 0.77 ± 0.05; CI (mean ± SD) ED75 (HCT-116 cells [2]; combination with Doxorubicin): 0.73 ± 0.08; CI (mean ± SD) ED90 (HCT-116 cells [2]; combination with Doxorubicin): 0.81 ± 0.02; CI (mean ± SD) ED75 (HCT-116 cells [2]; combination with Etoposide): 0.54 ± 0.04; CI (mean ± SD) ED90 (HCT-116 cells [2]; combination with Etoposide): 0.63 ± 0.01; human plasmacytoma growth [3]: significantly inhibited human plasmacytoma growth; survival [3]: significantly enhanced survival
N-(5-(tert-butyl)isoxazol-3-yl)-5-((3,5-dichloropyridin-4-yl)thio)-4-nitrothiophene-2-carboxamide [Example 201] |  |  |  |  |  |  |  |  |  |  |  | EC50 (HCT-116 cells [4]): 12.9 µM

From patent US8680139B2 (Progenra, priority 2009, dated 2014)
